Measurements published in US10004791B2, “Peptide vaccines against PCSK9” (AFFIRIS AG, priority 2014, dated 2018).

Experiments:
human PCSK9 protein = assay: Protein ELISA: titers of vaccine-induced PCSK9-specific antibodies in plasma of immunized mice; type: in vivo, BALB/c mice; settings: for titers against huPCSK9 (ODmax/2): mean titer, n=5 BALB/c mice/group, s.c. 4 x 15 μg net peptide coupled to KLH, Alhydrogel, plasma 2 weeks after final injection, titer = serum dilution at 50% ODmax; for capacity to elicit a humoral immune response targeting PCSK9: result in words
Description: (§1) The peptides were conjugated via the heterobifunctional linker GMBS (4-Maleimidobutyric acid N-hydroxysuccinimide ester) to KLH (Keyhole Limpet Hemocyanin).
5 BALB/c mice were subcutaneously immunized. Mice had access to food and water ad libitum and were kept under a 12 h light/dark cycle. The age of mice at the beginning of experiments was 8 to 10 weeks.
(§2) Mice were injected four times in 2 week intervals with 15 μg of net peptide coupled to KLH and adsorbed to Alhydrogel as adjuvant in a volume of 1 ml in total.
(§3) Blood was taken approximately 2 weeks after the final injection.
To determine the immunogenicity of the vaccines, and thus to identify the amount of PCSK9 specific antibodies in the plasma of immunized animals, ELISA immunoassay was performed. The ELISA immunoassay generates a signal which can be easily quantified and represents a quantitative measure of the amount of vaccine induced PCSK9-specific antibodies. Thus the titers as measured by ELISA correlate directly with the amount (μg/ml) of target specific antibodies in the plasma sample of treated animals. All plasma samples were collected two weeks after the final immunization and equality treated. In order to have a direct comparison, the quantitative evaluation by the PCSK9 Protein ELISA immunoassay of the vaccine induced PCSK9-specific antibodies and the comparison to their relative controls (originals sequence and negative control) was performed for all samples simultaneously. For this purpose, ELISA plates were coated with recombinantly expressed human PCSK9 protein. Unspecific binding was blocked by incubation with blocking buffer (1% BSA in PBS). Appropriate serum dilutions (with a starting dilution of 1:100) were added to the wells, serially diluted 1:2 fold (12 dilution steps) and incubated for approximately 1 hour. Bound antibodies were detected by incubation with anti-mouse IgG antibody, ABTS was added as substrate and the OD at 405 nm was measured. As negative control sera from the control group injected with an irrelevant peptide were analyzed. The titers were defined as the dilution of the serum where 50% of the ODmax in the assay is reached.

[1] = Total cholesterol assay in plasma of immunized mice (15 μg net peptide, four injections); type: in vivo, BALB/c mice; settings: for TC in % (FIG. 2A) / TC in % (FIG. 2B): mean total cholesterol, single AA exchange; for TC in % (FIG. 2A): n=3 mice/group, negative control group (irrelevant peptide) set as 100%; for TC in % (FIG. 2B) / TC in % multiple AA exchanges (FIG. 2C): n=5 mice/group, negative control group set as 100%; for TC in % multiple AA exchanges (FIG. 2C): total cholesterol
Description: as §1
[…] Mice had access to food and water ad libitum and were kept under a 12 h light/dark cycle. The age of mice at the beginning of experiments was 8 to 10 weeks.
as §2, §3
(§4) All plasma samples were collected two weeks after the final immunization and equality treated. Total cholesterol (TC) measurements were performed simultaneously for all samples and side by side compared to their related controls (originals sequence and negative control). The simultaneous quantitative measurement of the plasma TC levels in mg/dL was measured by LabAssay™ Cholesterol Kit (Wako). In details, upon incubation with the chromogen reagent containing cholesterol esterase, the cholesterol esters in the samples were decomposed into free cholesterol and fatty acids. Subsequently the free cholesterol was oxidized by the cholesterol oxidase, leading to the simultaneously release of hydrogen peroxide. The produced hydrogen peroxide let DAOS and 4-Aminoantipyrin oxidize and condensate quantitatively by peroxidase (HRP), which produced blue pigment. Optical density was measured at 600 nm and quantification of the TC was calculated according to a standard curve.

huPCSK9 = assay: Inhibition of furin cleavage of huPCSK9 by plasma from vaccinated mice (SDS-PAGE / Western blot); type: biochemical, human; settings: 4 μl mouse plasma, 250 ng biotinylated huPCSK9, 2 U furin overnight RT; FIG. 3; result in words
Description: The furin cleavage reaction was performed with 2 Units Furin (˜110 ng) (New England Biolabs) in PCSK9 buffer containing 100 mM Hepes Buffer pH 7.5, 5% Triton-X and 1 mM CaCl. In details, 4 μl mouse plasma from VARIOTOPE®s vaccinated mice was incubated with 250 ng biotinylated huPCSK9 (BPS Bioscience) in PCSK9 buffer for 1 h at room temperature. Subsequently, 2U Furin (˜110 ng) (New England Biolabs) was added to the reaction solution and incubated over night at RT. The reaction product was analyzed by SDS-PAGE under reducing conditions.

[2] = Reduction of total cholesterol (TC) in treated animals, additional experiments (1 μg net peptide, five injections); type: in vivo, mice; settings: 5 animals per group, 5 x 1 μg net peptide
Description: as §4
In order to evaluate the ability of selected VARIOTOPE® vaccine candidates to reduce TC and to compare the magnitude of TC reduction in VARIOTOPE® treated animals with the TC reduction in animals treated with a vaccine containing the original sequence, 5 to 10 mice per group were injected five times in 2 week intervals with vaccines containing 1 μg of net peptide. […]

Substance | titers against huPCSK9 (ODmax/2) (human PCSK9 protein) | further results
1 (PEEDGTRFHRQASK) [compound 1] | 12074 | TC in % (FIG. 2A) [1]: 81%; TC in % (FIG. 2B) [1]: 89%; TC in % multiple AA exchanges (FIG. 2C) [1]: 81%
2 (AEEDGTRFHRQASK) [compound 2] | 36869 | –
3 (PAEDGTRFHRQASK) [compound 3] | 2774 | –
4 (PEEDGTRFARQASK) [compound 4] | 21494 | –
5 (PEEDGTRFHAQASK) [compound 5] | 33442 | –
6 (PEEDGTRFHRAASK) [compound 6] | 22475 | –
7 (PEEDGTRFHRQAAK) [compound 7] | 15676 | –
8 (PEEDGTRFHRQASA) [compound 8] | 23638 | –
9 (TEEDGTRFHRQASK) [compound 9] | 23944 | –
10 (PQEDGTRFHRQASK) [compound 10] | 29228 | TC in % (FIG. 2A) [1]: 78%; inhibition of furin cleavage of mature PCSK9 (aa153-692) / formation of truncated PCSK9 (aa219-692, ~50 kDa) by induced antibodies (huPCSK9): inhibit the formation of truncated furin cleaved PCSK9
11 (PKEDGTRFHRQASK) [compound 11] | 6610 | –
12 (PEEDGSRFHRQASK) [compound 12] | 12636 | –
13 (PEEDGTRFHQQASK) [compound 13] | 18490 | –
14 (PEEDGTRFHKQASK) [compound 14] | 17795 | –
15 (PEEDGTRFHMQASK) [compound 15] | 15556 | –
16 (PEEDGTRFHREASK) [compound 16] | 18670 | –
17 (PEEDGTRFHRRASK) [compound 17] | 28996 | TC in % (FIG. 2A) [1]: 81%; inhibition of furin cleavage of mature PCSK9 (aa153-692) / formation of truncated PCSK9 (aa219-692, ~50 kDa) by induced antibodies (huPCSK9): inhibit the formation of truncated furin cleaved PCSK9
18 (PEEDGTRFHRKASK) [compound 18] | 30537 | TC in % (FIG. 2A) [1]: 81%; inhibition of furin cleavage of mature PCSK9 (aa153-692) / formation of truncated PCSK9 (aa219-692, ~50 kDa) by induced antibodies (huPCSK9): inhibit the formation of truncated furin cleaved PCSK9
19 (PEEDGTRFHRQSSK) [compound 19] | 41310 | –
20 (PEEDGTRFHRQATK) [compound 20] | 10813 | –
21 (PEEDGTRFHRQANK) [compound 21] | 15303 | –
22 (PEEDGTRFHRQALK) [compound 22] | 8694 | –
23 (PEEDGTRFHRQASR) [compound 23] | 14722 | TC in % (FIG. 2A) [1]: 70%
24 (PEEDGTRFHRQASL) [compound 24] | 19471 | –
25 (KEEDGTRFHRQASK) [compound 25] | 19315 | –
26 (PEWDGTRFHRQASK) [compound 26] | 840 | –
27 (PEEDKTRFHRQASK) [compound 27] | 7154 | –

Substance | titers against huPCSK9 (ODmax/2) (human PCSK9 protein) | further results
28 (PEEDGTGFHRQASK) [compound 28] | 0 | –
29 (PEEDGTRFSRQASK) [compound 29] | 33111 | –
30 (PEEDGTRFTRQASK) [compound 30] | 9519 | –
31 (PEEDGTRFVRQASK) [compound 31] | 11850 | –
32 (PEEDGTRFGRQASK) [compound 32] | 822 | –
33 (PEEDGTRFMRQASK) [compound 33] | 10651 | –
34 (PEEDGTRFHPQASK) [compound 34] | 20318 | –
35 (PEEDGTRFHSQASK) [compound 35] | 29223 | –
36 (PEEDGTRFHRTASK) [compound 36] | 29984 | TC in % (FIG. 2B) [1]: 72%
37 (PEEDGTRFHRQTSK) [compound 37] | 25826 | –
38 (PEEDGTRFHRQASS) [compound 38] | 31481 | –
39 (PEEDGTRFHRQAST) [compound 39] | 13172 | –
40 (PEEDGTRFHRQASV) [compound 40] | 22678 | –
41 (PEEDGSRFHKQASK) [compound 41] | 37296 | TC in % multiple AA exchanges (FIG. 2C) [1]: 66%
42 (PEEDGSRFHMQASK) [compound 42] | 18599 | –
43 (PEEDGSRFHRRASK) [compound 43] | 29435 | –
44 (PEEDGSRFHRQATK) [compound 44] | 20684 | TC in % multiple AA exchanges (FIG. 2C) [1]: 74%
45 (PEEDGSRFHRRATK) [compound 45] | 11097 | –
PEEDGTGFHRQASK [SEQ ID NO: 28] | – | capacity to elicit a humoral immune response targeting PCSK9 (human PCSK9 protein): do not have the capacity to elicit a humoral immune response targeting PCSK9
PEEDGTRFGRQASK [SEQ ID NO: 32] | – | capacity to elicit a humoral immune response targeting PCSK9 (human PCSK9 protein): do not have the capacity to elicit a humoral immune response targeting PCSK9
PEEDGTRFHRKASK [SEQ ID NO: 18] | – | inhibition of furin cleavage of mature PCSK9 (aa153-692) / formation of truncated PCSK9 (aa219-692, ~50 kDa) by induced antibodies (huPCSK9): inhibit the furin cleavage of the mature PCSK9
PEEDGTRFHRQASL [SEQ ID NO: 24] | – | TC values in comparison to the control group (FIG. 4) ([2]; control group set as 100%, result in words): possesses the ability to reduce TC levels compared to the negative control; TC levels compared to the original peptide containing vaccine (FIG. 5) ([2]; original sequence group set to 0%, positive = higher TC): +9%
PEEDGTRFHRQASR [SEQ ID NO: 23] | – | inhibition of furin cleavage of mature PCSK9 (aa153-692) / formation of truncated PCSK9 (aa219-692, ~50 kDa) by induced antibodies (huPCSK9): inhibit the furin cleavage of the mature PCSK9
PEEDGTRFHRRASK [SEQ ID NO: 17] | – | inhibition of furin cleavage of mature PCSK9 (aa153-692) / formation of truncated PCSK9 (aa219-692, ~50 kDa) by induced antibodies (huPCSK9): inhibit the furin cleavage of the mature PCSK9
PEWDGTRFHRQASK [SEQ ID NO: 26] | – | capacity to elicit a humoral immune response targeting PCSK9 (human PCSK9 protein): do not have the capacity to elicit a humoral immune response targeting PCSK9
PQEDGTRFHRQASK [SEQ ID NO: 10] | – | inhibition of furin cleavage of mature PCSK9 (aa153-692) / formation of truncated PCSK9 (aa219-692, ~50 kDa) by induced antibodies (huPCSK9): inhibit the furin cleavage of the mature PCSK9
